Results from ChEMBL document CHEMBL1133508, “Syntheses and antimalarial activities of 10-substituted deoxoartemisinins” (2000).

Legend:
Plasmodium falciparum [1] = assay: In vitro relative activity against chloroquine-sensitive, mefloquine-resistant Plasmodium falciparum D6; type: functional
Plasmodium falciparum [2] = assay: In vitro activity against chloroquine-resistant, mefloquine-sensitive Plasmodium falciparum W2; type: functional

Row | Compound | Relative activity (Plasmodium falciparum [1]) | Relative activity (Plasmodium falciparum [2])
1 | C[C@H]1[C@@H](C2C=CC(=O)O2)O[C@@H]2O[C@]3(C)CC[C@H]4[C@H](C)CC[C@@H]1[C@@]24OO3 (some centres not stated) | 0.77 | 0.18
2 | C[C@H]1[C@@H](C[C@@H](O)C(F)(F)F)O[C@@H]2OC3(C)CC[C@H]4[C@H](C)CC[C@@H]1[C@@]24OO3 (single isomer, unassigned) | 3.1 | 2.4
3 | C[C@H]1[C@@H](C[C@@H](O)C(C)(C)C)O[C@@H]2OC3(C)CC[C@H]4[C@H](C)CC[C@@H]1[C@@]24OO3 (single isomer, unassigned) | 1.6 | 1
4 | CC(C)[C@H](O)C[C@H]1O[C@@H]2OC3(C)CC[C@H]4[C@H](C)CC[C@@H]([C@H]1C)[C@@]24OO3 (single isomer, unassigned) | 1.4 | 2.3
5 | CC[C@H](O)C[C@H]1O[C@@H]2OC3(C)CC[C@H]4[C@H](C)CC[C@@H]([C@H]1C)[C@@]24OO3 (single isomer, unassigned) | 2.2 | 3.6
6 | C[C@H]1[C@@H](C[C@H](C)O)O[C@@H]2OC3(C)CC[C@H]4[C@H](C)CC[C@@H]1[C@@]24OO3 (single isomer, unassigned) | 0.98 | 1
7 | C[C@H]1[C@@H](C[C@H](O)C(F)(F)F)O[C@@H]2OC3(C)CC[C@H]4[C@H](C)CC[C@@H]1[C@@]24OO3 (single isomer, unassigned) | 2.5 | 3.1
8 | C[C@H]1[C@@H](C[C@@H](C)O)O[C@@H]2OC3(C)CC[C@H]4[C@H](C)CC[C@@H]1[C@@]24OO3 (single isomer, unassigned) | 1.7 | 1.7
9 | CC(C)[C@@H](O)C[C@H]1O[C@@H]2OC3(C)CC[C@H]4[C@H](C)CC[C@@H]([C@H]1C)[C@@]24OO3 (single isomer, unassigned) | 2.2 | 1.7
10 | CC[C@@H](O)C[C@H]1O[C@@H]2OC3(C)CC[C@H]4[C@H](C)CC[C@@H]([C@H]1C)[C@@]24OO3 (single isomer, unassigned) | 5.8 | 4.8
11 | C[C@H]1[C@@H](C[C@H](O)C(C)(C)C)O[C@@H]2OC3(C)CC[C@H]4[C@H](C)CC[C@@H]1[C@@]24OO3 (single isomer, unassigned) | 6.8 | 5.4
12 | C[C@H]1[C@@H](CC=O)O[C@@H]2OC3(C)CC[C@H]4[C@H](C)CC[C@@H]1[C@@]24OO3 (single isomer, unassigned) | 3.5 | 1.8
13 | C[C@H]1[C@@H](CC(=O)c2ccccc2)O[C@@H]2OC3(C)CC[C@H]4[C@H](C)CC[C@@H]1[C@@]24OO3 (single isomer, unassigned) | 0.16 | 2.5
14 | C[C@H]1[C@@H](C2CCCC(=O)O2)O[C@@H]2OC3(C)CC[C@H]4[C@H](C)CC[C@@H]1[C@@]24OO3 (single isomer, unassigned) | 1.4 | 2.2
15 | CCC(=O)C[C@H]1O[C@@H]2OC3(C)CC[C@H]4[C@H](C)CC[C@@H]([C@H]1C)[C@@]24OO3 (single isomer, unassigned) | 1 | 1.3
16 | CCOC(=O)/C=C/C[C@H]1O[C@@H]2OC3(C)CC[C@H]4[C@H](C)CC[C@@H]([C@H]1C)[C@@]24OO3 (single isomer, unassigned) | 1.1 | 1.4
17 | CC(C)C(=O)C[C@H]1O[C@@H]2OC3(C)CC[C@H]4[C@H](C)CC[C@@H]([C@H]1C)[C@@]24OO3 (single isomer, unassigned) | 1.8 | 2.1
18 | C[C@H]1[C@@H](CC(=O)C(C)(C)C)O[C@@H]2OC3(C)CC[C@H]4[C@H](C)CC[C@@H]1[C@@]24OO3 (single isomer, unassigned) | 1.6 | 2.1
19 | C[C@H]1[C@@H](C#N)O[C@@H]2OC3(C)CC[C@H]4[C@H](C)CC[C@@H]1[C@@]24OO3 (single isomer, unassigned) | 1.5 | 1.1
20 | C[C@H]1[C@@H](C2CCCC2=O)O[C@@H]2OC3(C)CC[C@H]4[C@H](C)CC[C@@H]1[C@@]24OO3 (single isomer, unassigned) | 0.91 | 1.6
21 | CC(=O)C[C@H]1O[C@@H]2OC3(C)CC[C@H]4[C@H](C)CC[C@@H]([C@H]1C)[C@@]24OO3 (single isomer, unassigned) | 2.6 | 1.7
